Laboratory results published in patent publication US20070078096A1, “Buffered drug formulations for transdermal electrotransport delivery” (priority 1997, published 2007).
In brackets after ≈: the same amount, converted by molar mass. Where two headings read alike, the source gives them in different places. Residues, ends and D or L forms follow the SMILES beside them.

Legend:
[1] = Conductivity of dipeptides at their pI; type: physicochemical
From the text: (§1) Table 1 lists conductivities and solubilities of selected dipeptides useful in the present invention, at their pI.

[2] = Solubility of dipeptides at their pI; type: physicochemical
From the text: as §1

[3] = pKa, pI and charge distribution of buffers; conditions: for % salt: fraction of dipeptide carrying a net charge in aqueous solution at pH equal to pI
From the text: At the pI, three species coexist.
In an electric field these negative species move in the opposite direction of their positive associated counterions.
Choice of the dipeptide buffer will be on a case-by-case basis depending on the drug compound and the desired level of pH control and conductivity of the formulation.

[4] = In vivo iontophoresis, pH control of anodic and cathodic buffer gels (Example 2); parameters: species or system hairless guinea pigs; Ionic strength (approx.): unit not given here; conditions: for Anodic pH after 5 h electrotransport / Cathodic pH after 5 h electrotransport: 0.1 mA/cm^2; for Initial pH: prior to application; for pH control of a cathodic electrotransport formulation: for at least 5 hours; for pH control of a cathodic electrotransport formulation / pH control of an anodic electrotransport formulation: dipeptides at their pI; for pH control of an anodic electrotransport formulation: for several hours
Method: In vivo iontophoresis experiments were performed using custom built electrotransport systems. […] This formulation was separated from the anode electrode by a Sybron ion exchange membrane. […] The cathode-compartment comprised a skin-contacting gel containing the aqueous solution of the buffering agent at the indicated concentration and 3% HEC. This formulation was separated from the cathode electrode by a Nafion ion exchange membrane. […] The electrodes were connected to a DC power source which supplied a constant level of electric current of 0.1 mA/cm^2. Experiments were performed in vivo in hairless guinea pigs. Three animals were used for each condition studied. The electrotransport systems were applied to and removed from the flank of the animals. The two reservoirs were generally spaced about 5 cm apart. The application site was wiped with water prior to system application. pH of the gels was measured prior to application and after removal of the systems using a HORIBA compact pH […]).

[5] = anodic gel, listed as Phosphate 33 mM
[6] = anodic gel, listed as Phosphate 100 mM

NCCCC[C@H](NC(=O)[C@@H](N)CCC(=O)O)C(=O)O [Glu-Lys] (H-Glu-Lys-OH)
Conductivity at 10^−2 Molar [1]: 6 μS/cm
Solubility [2]: 1000 mM (≈ 275 mg/mL)
pI ([3]; Table 1): 6.00
pI ([3]; Table 2): 6.00
% salt [3]: 2%

C[C@H](NC(=O)[C@@H](N)Cc1cnc[nH]1)C(=O)O [His-Ala] (H-His-Ala-OH)
Conductivity at 10^−2 Molar [1]: 60 μS/cm
Solubility [2]: 500 mM (≈ 113 mg/mL)
pka A [3]: 2.48
pI ([3]; Table 1): 6.95
pI ([3]; Table 2): 6.95
% salt [3]: 22%

N[C@@H](Cc1cnc[nH]1)C(=O)N[C@@H](CC(=O)O)C(=O)O [His-Asp] (H-His-Asp-OH)
Conductivity at 10^−2 Molar [1]: 28 μS/cm
Solubility [2]: 50 mM (≈ 13.5 mg/mL)
pI ([3]; Table 1): 5.22
pI ([3]; Table 2): 5.22
% salt [3]: 11%

N[C@@H](Cc1cnc[nH]1)C(=O)NCC(=O)O [His-Gly] (H-His-Gly-OH)
Conductivity at 10^−2 Molar [1]: 40 μS/cm
Solubility [2]: 1000 mM (≈ 212 mg/mL)
pka A [3]: 2.41
pI ([3]; Table 1): 6.90
pI ([3]; Table 2): 6.90
% salt [3]: 16%

NCCCC[C@H](N)C(=O)N[C@@H](CC(=O)O)C(=O)O [Lys-Asp] (H-Lys-Asp-OH)
Conductivity at 10^−2 Molar [1]: 6 μS/cm
Solubility [2]: 1000 mM (≈ 261 mg/mL)
pI ([3]; Table 1): 6.08
pI ([3]; Table 2): 6.08
% salt [3]: 2%

NCCCC[C@H](N)C(=O)N[C@@H](CCC(=O)O)C(=O)O [Lys-Glu] (H-Lys-Glu-OH)
Conductivity at 10^−2 Molar [1]: 8 μS/cm
Solubility [2]: 500 mM (≈ 138 mg/mL)
pI ([3]; Table 1): 6.06
pI ([3]; Table 2): 6.06
% salt [3]: 3%

O=S(=O)(O)CCCN1CCOCC1 [MOPS, 3-[N-morpholino]propanesulphonic acid, reference compound]
pI [3]: 4
buffering capacity at its pI ([3]; at pI): does not present any buffering capacity
conductivity of solutions at its pI ([3]; at pI): non-conductive
net charge at pH 7 ([3]; pH 7): −0.5
Ionic strength (approx.) ([4]; Table 3, anodic buffer gel): ~0.01
Ionic strength (approx.) ([4]; Table 4, cathodic buffer gel): ~0.01
Anodic pH after 5 h electrotransport ([4]; anodic gel): 4.1
Initial pH ([4]; anodic gel): 7.0
Cathodic pH after 5 h electrotransport ([4]; cathodic gel): 5.4
Initial pH ([4]; cathodic gel): 7.0
pH control of a cathodic electrotransport formulation [4]: lack of stability
pH control of an anodic electrotransport formulation [4]: lack of stability

CC(C)[C@H](N)C(=O)N[C@@H](Cc1cnc[nH]1)C(=O)O [Val-His] (H-Val-His-OH)
Conductivity at 10^−2 Molar [1]: 94 μS/cm
Solubility [2]: 200 mM (≈ 50.9 mg/mL)
pka A [3]: 3.09
pI ([3]; Table 1): 7.38
pI ([3]; Table 2): 7.38
% salt [3]: 34%

O=P(O)(O)O [phosphate, phosphoric acid, reference compound]
Ionic strength (approx.) ([4]; Table 3, anodic buffer gel, listed as Phosphate 10 mM): ~0.015
Ionic strength (approx.) ([4]; Table 3, anodic buffer gel, listed as Phosphate 33 mM): ~0.05
Ionic strength (approx.) ([4]; Table 3, anodic buffer gel, listed as Phosphate 100 mM): ~0.15
Ionic strength (approx.) ([4]; Table 4, cathodic buffer gel): ~0.015
Anodic pH after 5 h electrotransport [4, 5]: 3.3
Anodic pH after 5 h electrotransport [4, 6]: 6.5
Initial pH ([4]; anodic gel, listed as Phosphate 10 mM): 6.9
Initial pH [4, 5]: 6.9
Initial pH [4, 6]: 6.8
Cathodic pH after 5 h electrotransport ([4]; cathodic gel): 4.2
Initial pH ([4]; cathodic gel): 6.9
pH control of a cathodic electrotransport formulation [4]: lack of stability
pH control of an anodic electrotransport formulation [4]: lack of stability
